“And” between values parts separate entries of the source, which are not always exact repeats. Equal values may be shown once.
Columns and labels:
[1] = test system: MiaPaca2 KRAS G12C resistant clone 11; assay: 5-day Cell Titer Glo viability and Bliss score; assay type: cell-based; conditions: MIA-R clone 11, 5 day CTG
Method: For G12C resistant clone generation, MiaPaca2 parent cells were cultured with increasing concentrations of AMG510 (up to 1μM) over time. The viable cells were re-fed fresh media containing AMG510 weekly. Once the AMG510 resistant cells were growing at normal rates in the presence of 1μM AMG510, they were cloned by limiting dilution. Eight clones were selected for continued passage and further experiments.

MiaPaca2 cells = assay: 5-day Cell Titer Glo viability and Bliss score
Method: For synergy experiments, cells were seeded in RPMI medium with 10% HI FBS at a density of 500 cells/well in Greiner, white, clear bottom, 384-well tissue culture treated plates containing 10x10 combination matrices of compound. Plates were incubated at 37° C., 5% CO2 for 5 days. On day 5, Cell Titer Glo reagent was added to the plates and ATP luminescence was detected using a Pherastar FSX reader. The synergy score for the combination effect was calculated using a Bliss score model where the Bliss score=Yab−(Ya+Yb−(YaYb))×100, where Ya and Yb are the monotherapies. Bliss scores >20 are strongly synergistic and a higher Bliss scores indicates a higher level of synergism.

CCN1C(=O)N(c2c(F)c(OC)cc(OC)c2F)Cc2cnc3[nH]c(CN4CCOCC4)cc3c21 [Pemigatinib, 3-(2,6-difluoro-3,5-dimethoxyphenyl)-1-ethyl-8-(morpholin-4-ylmethyl)-1,3,4,7-tetrahydro-2H-pyrrolo[3′,2′:5,6]pyrido[4,3-d]pyrimidin-2-one]
BLISS Score ([1]; Pemi 333 nM + KRAS G12C i 111.11 nM): 25.28
BLISS Score ([1]; Pemi 333 nM + KRAS G12C i 333.33 nM): 14.69
BLISS Score ([1]; Pemi 333 nM + KRAS G12C i 1000.00 nM): 13.90
BLISS Score ([1]; Pemi 1000 nM + KRAS G12C i 0.15 nM): −0.21
BLISS Score ([1]; Pemi 1000 nM + KRAS G12C i 0.46 nM): 11.01
BLISS Score ([1]; Pemi 1000 nM + KRAS G12C i 1.37 nM): 23.94
BLISS Score ([1]; Pemi 1000 nM + KRAS G12C i 4.12 nM): 31.01
BLISS Score ([1]; Pemi 1000 nM + KRAS G12C i 12.35 nM): 29.47
BLISS Score ([1]; Pemi 1000 nM + KRAS G12C i 37.04 nM): 21.52
BLISS Score ([1]; Pemi 1000 nM + KRAS G12C i 111.11 nM): 24.91
BLISS Score ([1]; Pemi 1000 nM + KRAS G12C i 333.33 nM): 20.06
BLISS Score ([1]; Pemi 1000 nM + KRAS G12C i 1000.00 nM): 21.43
BLISS Score (MiaPaca2 cells; MIA PaCa2, Pemi 12 nM + KRAS G12C i 0.15 nM, 5 day CTG): −16.39
BLISS Score (MiaPaca2 cells; MIA PaCa2, Pemi 12 nM + KRAS G12C i 0.46 nM, 5 day CTG): −9.92
BLISS Score (MiaPaca2 cells; MIA PaCa2, Pemi 12 nM + KRAS G12C i 1.37 nM, 5 day CTG): −4.50
BLISS Score (MiaPaca2 cells; MIA PaCa2, Pemi 12 nM + KRAS G12C i 4.12 nM, 5 day CTG): −1.78
BLISS Score (MiaPaca2 cells; MIA PaCa2, Pemi 12 nM + KRAS G12C i 12.35 nM, 5 day CTG): −1.91
BLISS Score (MiaPaca2 cells; MIA PaCa2, Pemi 12 nM + KRAS G12C i 37.04 nM, 5 day CTG): 1.33
BLISS Score (MiaPaca2 cells; MIA PaCa2, Pemi 12 nM + KRAS G12C i 111.11 nM, 5 day CTG): 0.06
BLISS Score (MiaPaca2 cells; MIA PaCa2, Pemi 12 nM + KRAS G12C i 333.33 nM, 5 day CTG): 0.73
BLISS Score (MiaPaca2 cells; MIA PaCa2, Pemi 12 nM + KRAS G12C i 1000.00 nM, 5 day CTG): 0.29
BLISS Score (MiaPaca2 cells; MIA PaCa2, Pemi 37 nM + KRAS G12C i 0.15 nM, 5 day CTG): −13.53
BLISS Score (MiaPaca2 cells; MIA PaCa2, Pemi 37 nM + KRAS G12C i 0.46 nM, 5 day CTG): −5.08
BLISS Score (MiaPaca2 cells; MIA PaCa2, Pemi 37 nM + KRAS G12C i 1.37 nM, 5 day CTG): 6.72
BLISS Score (MiaPaca2 cells; MIA PaCa2, Pemi 37 nM + KRAS G12C i 4.12 nM, 5 day CTG): 4.25
BLISS Score (MiaPaca2 cells; MIA PaCa2, Pemi 37 nM + KRAS G12C i 12.35 nM, 5 day CTG): 3.06
BLISS Score (MiaPaca2 cells; MIA PaCa2, Pemi 37 nM + KRAS G12C i 37.04 nM, 5 day CTG): 5.01
BLISS Score (MiaPaca2 cells; MIA PaCa2, Pemi 37 nM + KRAS G12C i 111.11 nM, 5 day CTG): 3.10
BLISS Score (MiaPaca2 cells; MIA PaCa2, Pemi 37 nM + KRAS G12C i 333.33 nM, 5 day CTG): 2.88
BLISS Score (MiaPaca2 cells; MIA PaCa2, Pemi 37 nM + KRAS G12C i 1000.00 nM, 5 day CTG): 2.69
BLISS Score (MiaPaca2 cells; MIA PaCa2, Pemi 111 nM + KRAS G12C i 0.15 nM, 5 day CTG): −10.62
BLISS Score (MiaPaca2 cells; MIA PaCa2, Pemi 111 nM + KRAS G12C i 0.46 nM, 5 day CTG): −7.15
BLISS Score (MiaPaca2 cells; MIA PaCa2, Pemi 111 nM + KRAS G12C i 1.37 nM, 5 day CTG): 9.38
BLISS Score (MiaPaca2 cells; MIA PaCa2, Pemi 111 nM + KRAS G12C i 4.12 nM, 5 day CTG): 4.70
BLISS Score (MiaPaca2 cells; MIA PaCa2, Pemi 111 nM + KRAS G12C i 12.35 nM, 5 day CTG): 4.83
BLISS Score (MiaPaca2 cells; MIA PaCa2, Pemi 111 nM + KRAS G12C i 37.04 nM, 5 day CTG): 6.56
BLISS Score (MiaPaca2 cells; MIA PaCa2, Pemi 111 nM + KRAS G12C i 111.11 nM, 5 day CTG): 4.31
BLISS Score (MiaPaca2 cells; MIA PaCa2, Pemi 111 nM + KRAS G12C i 333.33 nM, 5 day CTG): 3.66
BLISS Score (MiaPaca2 cells; MIA PaCa2, Pemi 111 nM + KRAS G12C i 1000.00 nM, 5 day CTG): 4.56
BLISS Score (MiaPaca2 cells; MIA PaCa2, Pemi 333 nM + KRAS G12C i 0.15 nM, 5 day CTG): −12.96
BLISS Score (MiaPaca2 cells; MIA PaCa2, Pemi 333 nM + KRAS G12C i 0.46 nM, 5 day CTG): −5.77
BLISS Score (MiaPaca2 cells; MIA PaCa2, Pemi 333 nM + KRAS G12C i 1.37 nM, 5 day CTG): 11.10
BLISS Score (MiaPaca2 cells; MIA PaCa2, Pemi 333 nM + KRAS G12C i 4.12 nM, 5 day CTG): 7.47
BLISS Score (MiaPaca2 cells; MIA PaCa2, Pemi 333 nM + KRAS G12C i 12.35 nM, 5 day CTG): 3.76
BLISS Score (MiaPaca2 cells; MIA PaCa2, Pemi 333 nM + KRAS G12C i 37.04 nM, 5 day CTG): 6.27
BLISS Score (MiaPaca2 cells; MIA PaCa2, Pemi 333 nM + KRAS G12C i 111.11 nM, 5 day CTG): 4.88
BLISS Score (MiaPaca2 cells; MIA PaCa2, Pemi 333 nM + KRAS G12C i 333.33 nM, 5 day CTG): 3.97
BLISS Score (MiaPaca2 cells; MIA PaCa2, Pemi 333 nM + KRAS G12C i 1000.00 nM, 5 day CTG): 2.38
BLISS Score (MiaPaca2 cells; MIA PaCa2, Pemi 1000 nM + KRAS G12C i 0.15 nM, 5 day CTG): −10.95
BLISS Score (MiaPaca2 cells; MIA PaCa2, Pemi 1000 nM + KRAS G12C i 0.46 nM, 5 day CTG): −5.74
BLISS Score (MiaPaca2 cells; MIA PaCa2, Pemi 1000 nM + KRAS G12C i 1.37 nM, 5 day CTG): 3.46
BLISS Score (MiaPaca2 cells; MIA PaCa2, Pemi 1000 nM + KRAS G12C i 4.12 nM, 5 day CTG): 6.59
BLISS Score (MiaPaca2 cells; MIA PaCa2, Pemi 1000 nM + KRAS G12C i 12.35 nM, 5 day CTG): 2.84
BLISS Score (MiaPaca2 cells; MIA PaCa2, Pemi 1000 nM + KRAS G12C i 37.04 nM, 5 day CTG): 4.32
BLISS Score (MiaPaca2 cells; MIA PaCa2, Pemi 1000 nM + KRAS G12C i 111.11 nM, 5 day CTG): 4.62
BLISS Score (MiaPaca2 cells; MIA PaCa2, Pemi 1000 nM + KRAS G12C i 333.33 nM, 5 day CTG): 3.71
BLISS Score (MiaPaca2 cells; MIA PaCa2, Pemi 1000 nM + KRAS G12C i 1000.00 nM, 5 day CTG): 4.32
BLISS Score (MiaPaca2 cells; MIAPACA2, Average, G12C i 111 nM + Pemi 1 μM, 5-day CTG): 6.3
BLISS Score (MiaPaca2 cells; MIAPACA2, G12C i 111 nM + Pemi 1 μM, 5-day CTG, single experiments): 8.8 and 5.6 and 4.6

From patent US20230226040A1, “COMBINATION THERAPY COMPRISING AN FGFR INHIBITOR AND A KRAS INHIBITOR” (Incyte Corporation, priority 2021, published 2023)
